Starred links: 1 amine or outer side, 2 acyl side, 3 side chain; linkers in the order of their positions; H or OH if unused. Residues, ends and D or L forms follow the SMILES beside them. *: point of attachment. C20 diacid = O=C(O)CCCCCCCCCCCCCCCCCCC(=O)*; C18 diacid = O=C(O)CCCCCCCCCCCCCCCCC(=O)*; C16 diacid = O=C(O)CCCCCCCCCCCCCCC(=O)*; γGlu = O=C(O)[C@H](CCC(=O)[*:2])N[*:1]; Trx = NC[C@H]1CC[C@H](C(=O)O)CC1; AEEA = NCCOCCOCC(=O)O; Inp = O=C(O)C1CCNCC1
Target: T1, human amylin receptors (Homo sapiens, UniProt O60896+P30988)
T1 construct: host or cells: CHO-K1/Ga15/AMY3 cells, further stably transfected with a CRE-luciferase plasmid
T1 sequence (P30988 25-474): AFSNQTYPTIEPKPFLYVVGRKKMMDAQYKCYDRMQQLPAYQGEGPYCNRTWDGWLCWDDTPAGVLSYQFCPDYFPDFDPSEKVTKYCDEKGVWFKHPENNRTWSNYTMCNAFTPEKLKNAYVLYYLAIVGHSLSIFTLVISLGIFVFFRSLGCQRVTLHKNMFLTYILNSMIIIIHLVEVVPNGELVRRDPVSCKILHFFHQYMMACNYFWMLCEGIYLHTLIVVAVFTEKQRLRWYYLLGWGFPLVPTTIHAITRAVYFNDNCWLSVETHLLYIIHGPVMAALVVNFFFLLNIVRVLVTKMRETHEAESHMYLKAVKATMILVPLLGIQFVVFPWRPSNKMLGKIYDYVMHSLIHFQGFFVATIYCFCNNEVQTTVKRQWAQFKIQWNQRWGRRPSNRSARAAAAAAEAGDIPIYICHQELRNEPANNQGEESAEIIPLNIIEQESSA
T1 sequence (O60896 24-148 partner): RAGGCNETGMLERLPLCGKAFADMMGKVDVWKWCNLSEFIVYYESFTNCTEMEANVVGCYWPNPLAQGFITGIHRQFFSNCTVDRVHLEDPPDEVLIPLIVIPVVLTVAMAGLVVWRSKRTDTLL
Experiment: Luciferase assay in stably transfected amylin receptor/CRE-luc CHO cell line
Assay type: cell-based
Details: for Relative activity: EC50 ratio of Cagrilintide to the compound, Cagrilintide 100%; for EC50: amylin receptor/CRE-luc CHO cells, 24 hours incubation, luminescence
From the text: The objective of this assay is to test the potency of derivatives of polypeptides of the present application on human amylin receptors in vitro using a luciferase assay. Using the standard protocol, CHO-K1/Ga15/AMY3 cells (purchased from GenScript, with the calcitonin receptor and the receptor activity modifying peptide (RAMP) constructed already) were transfected with a plasmid containing a luciferase expression cassette driven by multiple copies of cAMP response elements (CREs). The cells were cultured in an F12 medium containing 200 μg/mL Zeocin, 2 μg/mL puromycin, 100 μg/mL hygromycin, and 400 μg/mL G418 to afford a stably transfected amylin receptor/CRE-luc cell line. The lyophilized powder from Example 1 was dissolved in 20 mM phosphate buffer solution with a pH of 7.0, and diluted in a growth medium (F12 culture medium containing 10% FBS) to give a derivative sample with an initial concentration of 10 nM, which was then subjected to a 5-fold serial dilution in the growth medium to obtain seven samples with concentrations between […]. In each well of a white 96-well plate, 50 μL of the tested sample solution was added with a corresponding concentration. The stably transfected amylin receptor/CRE-luc CHO cells were resuspended in the growth medium at a certain density, and 50 μL of the cell suspension was added at a density of about 20000 cells per well to the white 96-well plate containing the tested sample solution. After incubation of 24 hours at 37° C. and 5% CO2, 100 μL of a Luciferase substrate was added to each well, incubated for 3 minutes, and finally was tested for luminescence on SpectraMax L (Molecular Devices) with the software SoftMax Pro 7.0.3 GxP.

| Structure (SMILES) | Relative activity | EC50 |
| --- | --- | --- |
| CC[C@H](C)[C@H](NC(=O)[C@H](CC(=O)O)NC(=O)[C@H](CCCNC(=N)N)NC(=O)[C@H](CC(=O)O)NC(=O)[C@H](CCCNC(=N)N)NC(=O)[C@H](CC(=O)O)NC(=O)[C@@H](NC(=O)[C@H](Cc1ccccc1)NC(=O)[C@H](Cc1c[nH]cn1)NC(=O)[C@H](CCCNC(=N)N)NC(=O)[C@H](CC(C)C)NC(=O)[C@H](Cc1ccccc1)NC(=O)[C@H](CC(=O)O)NC(=O)[C@H](C)NC(=O)[C@H](CC(C)C)NC(=O)[C@H](CCCNC(=N)N)NC(=O)[C@H](CCC(N)=O)NC(=O)[C@@H](NC(=O)[C@H](C)NC(=O)[C@H](C)NC(=O)[C@@H](NC(=O)[C@H](CO)NC(=O)[C@H](CC(C)C)NC(=O)[C@H](CCC(N)=O)NC(=O)[C@H](CO)NC(=O)[C@H](C)NC(=O)COCCOCCNC(=O)COCCOCCNC(=O)[C@H]1CC[C@H](CNC(=O)CCCCCCCCCCCCCCCCCCC(=O)O)CC1)[C@@H](C)O)[C@@H](C)O)[C@@H](C)O)C(=O)N[C@@H](CC(C)C)C(=O)N1CCC[C@H]1C(=O)N1CCC[C@H]1C(=O)N[C@H](C(=O)N[C@@H](CC(N)=O)C(=O)N[C@H](C(=O)NCC(=O)N[C@@H](CO)C(=O)N[C@@H](CC(N)=O)C(=O)N[C@H](C(=O)N1CCC[C@H]1C(N)=O)[C@@H](C)O)C(C)C)[C@@H](C)O [M20] ({C20 diacid-Trx-AEEA-AEEA}-ASQLSTAATQRLADFLRHFTDRDRDILPPTNVGSNTP-NH2) | 171% |  |
| CC[C@H](C)[C@H](NC(=O)[C@H](CC(=O)O)NC(=O)[C@H](CCCNC(=N)N)NC(=O)[C@H](CC(=O)O)NC(=O)[C@H](CCCNC(=N)N)NC(=O)[C@H](CC(=O)O)NC(=O)[C@@H](NC(=O)[C@H](Cc1ccccc1)NC(=O)[C@H](Cc1c[nH]cn1)NC(=O)[C@H](CCCNC(=N)N)NC(=O)[C@H](CC(C)C)NC(=O)[C@H](Cc1ccccc1)NC(=O)[C@H](CC(=O)O)NC(=O)[C@H](C)NC(=O)[C@H](CC(C)C)NC(=O)[C@H](CCCNC(=N)N)NC(=O)[C@H](CCC(N)=O)NC(=O)[C@@H](NC(=O)[C@H](C)NC(=O)[C@H](C)NC(=O)[C@@H](NC(=O)[C@H](CO)NC(=O)[C@H](CC(C)C)NC(=O)[C@H](CCC(N)=O)NC(=O)[C@H](CO)NC(=O)[C@H](C)NC(=O)COCCOCCNC(=O)COCCOCCNC(=O)C1CCN(C(=O)CCCCCCCCCCCCCCCCCCC(=O)O)CC1)[C@@H](C)O)[C@@H](C)O)[C@@H](C)O)C(=O)N[C@@H](CC(C)C)C(=O)N1CCC[C@H]1C(=O)N1CCC[C@H]1C(=O)N[C@H](C(=O)N[C@@H](CC(N)=O)C(=O)N[C@H](C(=O)NCC(=O)N[C@@H](CO)C(=O)N[C@@H](CC(N)=O)C(=O)N[C@H](C(=O)N1CCC[C@H]1C(N)=O)[C@@H](C)O)C(C)C)[C@@H](C)O [M21] ({C20 diacid-Inp-AEEA-AEEA}-ASQLSTAATQRLADFLRHFTDRDRDILPPTNVGSNTP-NH2) | 126% | 0.023 nM |
| CC[C@H](C)[C@H](NC(=O)[C@H](CC(=O)O)NC(=O)[C@H](CCCNC(=N)N)NC(=O)[C@H](CC(=O)O)NC(=O)[C@H](CCCNC(=N)N)NC(=O)[C@H](CC(=O)O)NC(=O)[C@@H](NC(=O)[C@H](Cc1ccccc1)NC(=O)[C@H](Cc1c[nH]cn1)NC(=O)[C@H](CCCNC(=N)N)NC(=O)[C@H](CC(C)C)NC(=O)[C@H](Cc1ccccc1)NC(=O)[C@H](CC(=O)O)NC(=O)[C@H](C)NC(=O)[C@H](CC(C)C)NC(=O)[C@H](CCCNC(=N)N)NC(=O)[C@H](CCC(N)=O)NC(=O)[C@@H](NC(=O)[C@H](C)NC(=O)[C@H](C)NC(=O)[C@@H](NC(=O)[C@H](CO)NC(=O)[C@H](CC(C)C)NC(=O)[C@H](CCC(N)=O)NC(=O)[C@H](CO)NC(=O)[C@H](C)NC(=O)CC[C@H](NC(=O)CCCCCCCCCCCCCCCCC(=O)O)C(=O)O)[C@@H](C)O)[C@@H](C)O)[C@@H](C)O)C(=O)N[C@@H](CC(C)C)C(=O)N1CCC[C@H]1C(=O)N1CCC[C@H]1C(=O)N[C@H](C(=O)N[C@@H](CC(N)=O)C(=O)N[C@H](C(=O)NCC(=O)N[C@@H](CO)C(=O)N[C@@H](CC(N)=O)C(=O)N[C@H](C(=O)N1CCC[C@H]1C(N)=O)[C@@H](C)O)C(C)C)[C@@H](C)O [M22] ({C18 diacid-γGlu}-ASQLSTAATQRLADFLRHFTDRDRDILPPTNVGSNTP-NH2) | 198% | 0.016 nM |
| CC[C@H](C)[C@H](NC(=O)[C@H](CC(=O)O)NC(=O)[C@H](CCCNC(=N)N)NC(=O)[C@H](CC(=O)O)NC(=O)[C@H](CCCNC(=N)N)NC(=O)[C@H](CC(=O)O)NC(=O)[C@@H](NC(=O)[C@H](Cc1ccccc1)NC(=O)[C@H](Cc1c[nH]cn1)NC(=O)[C@H](CCCNC(=N)N)NC(=O)[C@H](CC(C)C)NC(=O)[C@H](Cc1ccccc1)NC(=O)[C@H](CC(=O)O)NC(=O)[C@H](C)NC(=O)[C@H](CC(C)C)NC(=O)[C@H](CCCNC(=N)N)NC(=O)[C@H](CCC(N)=O)NC(=O)[C@@H](NC(=O)[C@H](C)NC(=O)[C@H](C)NC(=O)[C@@H](NC(=O)[C@H](CO)NC(=O)[C@H](CC(C)C)NC(=O)[C@H](CCC(N)=O)NC(=O)[C@H](CO)NC(=O)[C@H](C)NC(=O)CC[C@H](NC(=O)CCCCCCCCCCCCCCC(=O)O)C(=O)O)[C@@H](C)O)[C@@H](C)O)[C@@H](C)O)C(=O)N[C@@H](CC(C)C)C(=O)N1CCC[C@H]1C(=O)N1CCC[C@H]1C(=O)N[C@H](C(=O)N[C@@H](CC(N)=O)C(=O)N[C@H](C(=O)NCC(=O)N[C@@H](CO)C(=O)N[C@@H](CC(N)=O)C(=O)N[C@H](C(=O)N1CCC[C@H]1C(N)=O)[C@@H](C)O)C(C)C)[C@@H](C)O [M23] ({C16 diacid-γGlu}-ASQLSTAATQRLADFLRHFTDRDRDILPPTNVGSNTP-NH2) | 182% | 0.017 nM |
| CC[C@H](C)[C@H](NC(=O)[C@H](CC(=O)O)NC(=O)[C@H](CCCNC(=N)N)NC(=O)[C@H](CC(=O)O)NC(=O)[C@H](CCCNC(=N)N)NC(=O)[C@H](CC(=O)O)NC(=O)[C@@H](NC(=O)[C@H](Cc1ccccc1)NC(=O)[C@H](Cc1c[nH]cn1)NC(=O)[C@H](CCCNC(=N)N)NC(=O)[C@H](CC(C)C)NC(=O)[C@H](Cc1ccccc1)NC(=O)[C@H](CC(=O)O)NC(=O)[C@H](C)NC(=O)[C@H](CC(C)C)NC(=O)[C@H](CCCNC(=N)N)NC(=O)[C@H](CCC(N)=O)NC(=O)[C@@H](NC(=O)[C@H](C)NC(=O)[C@H](C)NC(=O)[C@@H](NC(=O)[C@H](CO)NC(=O)[C@H](CC(C)C)NC(=O)[C@H](CCC(N)=O)NC(=O)[C@H](CO)NC(=O)[C@H](C)NC(=O)COCCOCCNC(=O)COCCOCCNC(=O)COCCOCCNC(=O)COCCOCCNC(=O)CC[C@H](NC(=O)CCCCCCCCCCCCCCCCCCC(=O)O)C(=O)O)[C@@H](C)O)[C@@H](C)O)[C@@H](C)O)C(=O)N[C@@H](CC(C)C)C(=O)N1CCC[C@H]1C(=O)N1CCC[C@H]1C(=O)N[C@H](C(=O)N[C@@H](CC(N)=O)C(=O)N[C@H](C(=O)NCC(=O)N[C@@H](CO)C(=O)N[C@@H](CC(N)=O)C(=O)N[C@H](C(=O)N1CCC[C@H]1C(N)=O)[C@@H](C)O)C(C)C)[C@@H](C)O [M24] ({C20 diacid-γGlu-AEEA-AEEA-AEEA-AEEA}-ASQLSTAATQRLADFLRHFTDRDRDILPPTNVGSNTP-NH2) | 47% | 0.066 nM |

— patent US20260265329A1, “POLYPEPTIDE AND DERIVATIVE THEREOF, COMPOSITION, AND USE THEREOF” (HANGZHOU SCIWIND BIOSCIENCES CO., LTD., priority 2023, published 2026)
